The values below come from patent US12589170B2, “Devices and methods for radiopharmaceutical synthesis” (VANDERBILT UNIVERSITY, priority 2019, dated 2026).

One series has as its system rat brain. Nature of the series: microPET imaging of rat brain with [18F]fallypride produced in the microfluidic chip. Type of series: in vivo. Conditions: dose of about 300 μCi, microPET for about 2 hours. An excerpt:
To further verify the utility of the resulting [^18F]fallypride, we produced (using the integrated microfluidic chip) a dose of about 300 μCi with about 19.55 Ci/μmol (723.35 GBq/μmol) of specific activity and about 98.62% of radiochemical purity, and obtained PET data from a rat brain. The time point used to calculate the specific activity was at the end of production, namely the time when the purified [^18F]fallypride was retrieved from chip. The rat was brought to the imaging lab to habituate about 3 hours prior to imaging. About 0.1 ml purified [^18F] fallypride was filtered through an about 0.45 μm filter (Millex-HV) and about 0.9 ml saline was added to formulate the PET probe used for rat injection. […] The accumulation and pharmacokinetics of [^18F]fallypride were as expected when evaluated in the rat brain.

The nature of series [1]: Stability of final product at room temperature examined by radio-HPLC. Type of series: physicochemical. The settings on record: duration up to about 4 hours. The method, then:
A Hitachi HPLC (LaChrom Elite, Pump L-2130) equipped with a wavelength UV detector (L-2400, 254 nm) and inline radiation detector (Inline Carroll & Ramsey) was used to evaluate radiochemical purity. A C18 column (Phenomenex Gemini, particle size about 10 μm, 150×4.6 mm) was used. For the mobile phase, acetonitrile (referred as A1) mixed with water containing about 0.1% trifluoroacetic acid (TFA) was used with gradient as following: 0% A1/100% TFA for about 0-2 min, 100% A1/0% TFA for about 8-10 min. The flow rate was constantly set as about 1 mL/min. Moreover, radiochemical purity was also examined by radio thin layer chromatography (TLC) using ITLC (instant TLC) paper strips (Varian). […] The value of radioactivity was measured using a calibrated dose calibrator (Capintec, CRC-25PET). The radiochemical yields were evaluated as a percentage of total activity of ^68GaCl3 initially delivered from the generator. Unless specified elsewhere, all efficiencies are calculated based on decay-corrected values.
A radio-TLC chromatogram of synthesized product is shown in FIG. 6 and the ^68Ga-labelled peptide has an approximate retardation factor of about 0.8-1.0. Using the microfluidic device, the incorporation efficiency of 100% can be consistently achieved as determined by radio HPLC chromatogram (FIG. 7B). […]

As to `C=CCN1CCC[C@H]1CNC(=O)c1cc(CCC[18F])cc(OC)c1OC` [[^18F]fallypride], the “accumulation and pharmacokinetics in the rat brain” value in the series on rat brain was “as expected”.

On to `O=C([O-])CN(CCN(CC(=O)[O-])Cc1cc(CCC(=O)NCCCCCC(=O)NCCCC[C@H](NC(=O)N[C@@H](CCC(=O)O)C(=O)O)C(=O)O)ccc1[O-])Cc1cc(CCC(=O)O)ccc1[O-].[68Ga+3].[OH3+]` [^68Ga-PSMA-11], for which, in series [1], the “stability of final product (retention time, product purity by radio-HPLC)” value was “no discrepancy on retention time or product purity was observed”.
